These results are taken from patent publication US20240197643A1, “ORAL DELIVERY OF NANOPARTICLES FOR KIDNEY DISEASE” (UNIVERSITY OF SOUTHERN CALIFORNIA, priority 2020, published 2024).

Values after ≈ are worked out from the molar mass of the structure shown. Read-outs that look alike come from different tables or passages of the source. Where only a bound is given, the exact number is not on record here.

One data set has as its target megalin (mouse) (UniProt A2ARV4). The experiment in a line: confocal immunohistochemistry of mouse kidney sections 24 h after i.v. injection; colocalization of Cy7 micelle signal with anti-megalin Alexa Fluor 488 signal (ImageJ coloc2).
The nature of data set [1]: Encapsulation study of everolimus or rapamycin in micelles. Format: physicochemical. The procedure: Micelles were assembled by dissolving DSPE-PEG(2000)-methoxy in methanol at 100 μM with either everolimus or rapamycin at different lipid:drug molar ratios (2:1, 5:1, 10:1, 20:1), mixing the components, and evaporating the organic solvent under nitrogen. The resulting film was dried under vacuum over night, and then hydrated at 80° C. for 30 min in water and allowed to cool to room temperature overnight before DLS and TEM analysis. DLS measurements were determined at 90° and 637 nm using a Malvern Zetasizer. Free drug was separated by syringe filtering micelles using PTFE syringe filter, pore size 0.1 μm. To calculate encapsulation efficiency and drug loading, micelles were disrupted using DMSO and encapsulated drug was quantified by reading absorbance at 278 nm in a UV Greiner 96-well plate.

The next data set is described as follows: Solubility in MQ. In kind it is physicochemical. The note with it: MQ (water).
A short description of data set [2]: Histology and intestinal localization after oral gavage. The following applies: 24 h after oral gavage. In kind it is in vivo, C57BL/6 J mice.
Source text: Following ex vivo imaging, the brain, heart, lungs, liver, kidneys, spleen, intestines, and bladder were immediately frozen and embedded in OCT (Tissue Tek, Sakura Finetek, Torrance, CA, USA). 10 μm sections were obtained (CM3050 S Cryostat, Leica, Nussloch, Germany) and placed on Superfrost Plus slides (Fisherbrand, Waltham, MA, USA). Tissue sections were stained with hematoxylin & eosin (H&E) and imaged (Leica DMi8, Leica, Wetzlar, Germany, N=3). For staining of intestinal mucin, tissue sample were processed with an alcian blue 1%, pH 2.5 stain kit (Newcomer Supply, Middleton, WI, USA). Briefly, tissue sections on slides were washed in acetic acid for 3 min, incubated in alcian blue for 30 min at 4° C. in a humidified chamber, and counterstained with Nuclear Fast Red (Vector Laboratories, Burlingame, CA, USA). Samples were mounted using VectaMount™ (Vector Laboratories, Burlingame, CA, USA).
The nature of data set [3]: Serum fluorescence and absolute bioavailability after oral gavage. The note with it: oral gavage 10 mg/kg rhodamine, relative to IV. Format: in vivo, C57BL/6 J mice. The procedure: Blood draws were performed either retro-orbitally or via tail vein at 30 min, 3, 6, 12, 24, 36, and 48 h post-administration. Fluorescence was measured in serum and quantified using a rhodamine calibration curve developed in mouse serum.

Another data set deals with Caco-2 cells. Description: Cellular uptake and transport of CS-NP with pathway inhibitors. Format: in vitro ADME, Human. The following applies: same conditions as CS-NP R. Here is the method:
To assess the cellular uptake pathways of chitosan nanoparticles, Caco-2 cells were pretreated with medium containing colchicine (transcytosis inhibitor, 10 μM, for 60 min) or wortmannin (macropinocytosis inhibitor, 0.06 mM, for 3 h) before 100 μL of 100 μM rhodamine-loaded chitosan nanoparticles (CS-NP R) was administered in the apical chamber. The amount of rhodamine fluorescence was measured in the basolateral chamber over the course of 4 h.

The next data set relates to Caco-2 cell monolayers. The experiment in a line: Transepithelial resistance (TER) surveillance. In kind it is cell-based, Human. The note with it: up to 3 days after administration. The procedure:
For transport and monolayer resistance experiments, Caco-2 cell monolayers were seeded onto Transwell inserts (Corning, NY, USA; diameter 6.5 mm, growth area 0.33 cm^2, pore size 0.4 μm), at an initial density of 3×10^5 cell/cm2 and maintained for 21 days in complete medium to form a confluent monolayer. The change of TER, representing the tightness of the cell monolayers, was measured by an EVOM2 Epithelial Voltohmmeter (World Precision Instruments, USA). Monolayers reaching steady-state values in the range of 300-400 Ω-cm^2 were used for studies.
Additionally, the effect of paracellular transport through tight junctions was monitored via TER of Caco-2 cells seeded on Transwell inserts. TER measurements were performed daily for three days prior to treatment with CS-NP R, free Rhodamine (free R), or PBS control to establish baseline measurements. TER was monitored every 6 h, then again on day 2 and 3 post-administration.

The nature of data set [4]: Ex vivo imaging of orally administered CS-NP. Format: in vivo, C57BL/6 J mice. The following applies: oral gavage 10 mg/kg rhodamine. The procedure:
To assess the biodistribution of CS-NP semi-quantitatively, 6-7 week old male and female C57BL/6 J mice (Jackson Laboratories, Bar Harbor, ME, USA) were orally gavaged with 10 mg/kg of rhodamine loaded in 200 μL of 500 μM CS-NP R, 10 mg/kg of free R, or PBS control. Mice were euthanized after 3, 24, or 48 h […] and organs (e.g., brain, heart, lungs, liver, kidneys, spleen, intestines, and bladder) were excised and imaged ex vivo on an AMI HTX in vivo imaging system (Spectral Instruments Imaging, Tucson, AZ, USA). The fluorescence signal was quantified via Aura software (Spectral Instruments Imaging, Tucson, AZ, USA, N ≥4), and the background was subtracted from the PBS treated group. The mean radiance (photons/s/cm2/sr) for each organ was quantified as a region of interest, and % of total organ fluorescence was obtained by dividing each organ by the sum of all the organ regions. Urine and blood samples were collected following organ harvest and stored at −20° C. until further analysis. All animal procedures followed NIH guidelines for the care and use of laboratory animals and were approved by the University of Southern California's Institutional Animal Care and Use Committee.

Data set [5] can be described thus: Kidney health in PKD mice (i-Stat Chem-8+). The following applies: day of harvest. Format: in vivo, Pkd1fl/fl; Pax8 rtTA; Tet-O-Cre mice. Here is the method:
Serum components, electrolytes, and kidney health markers including sodium (Na), potassium (K), chloride (Cl), ionized calcium (iCa), total carbon dioxide (tCO2), glucose (Glu), blood urea nitrogen (BUN)/Urea, creatinine (Crea), hematocrit (Hct), hemoglobin (Hb), and anion gap (AnGap) were assessed in diseased Pkd1fl/fl; Pax8 rtTA; Tet-OCre mice. 90 μL of blood taken from the submandibular vein on the day of harvest was analyzed using Chem-8+ cartridges for the i-Stat Handheld Blood Analyzer (Abbott, Chicago, IL, USA).

Data set [6] has as its system epithelial sodium channel (ENaC). Description: ENaC current measurement in mpkCCDc14 monolayers. The following applies: after 48 h, mpkCCDc14 cells, 300 μM met. In kind it is cell-based, Mouse. The procedure: To validate the therapeutic efficacy of met on the reduction of ENAC current, TER and potential difference (PD) measurements were made on mpkCCDc14 cells seeded on Transwell filters as described above. ENaC-dependent equivalent short-circuit currents (leq) was estimated by Ohm's law, dividing the measured PD by the TER value and the area of one Transwell membrane (0.33 cm2). mpkCCDc14 cell cultures were treated with 100 μL CS-NP met (300 μM met), CS-NP, or PBS at pH 7.4.

The subject of the next data set is AMPK. The experiment in a line: Transwell intestinal cell model, pAMPK/AMPK ELISA of basolateral mpkCCDc14. Format: cell-based. The note with it: 300 μM, up to 48 h, across Caco2 monolayer on transwell insert. An excerpt:
FIG. 17A provides a transwell schematic of mpkCCDc14 cell monolayers, with a Caco2 cell monolayer seeded on the transwell insert. […] Chitosan Disrupts Intestinal Tight Junctions.
On the technique in general: ELISA stands for enzyme-linked immunosorbent assay.

For data set [7] the following is noted: human, in vivo, cited from earlier work.
For data set [8] the following is noted: human, in vivo; cited from earlier work.
For data set [9] the following is noted: cited from earlier work.
The test system of data set [10] is cortical collecting duct (CCD). The note with it: identified in the literature; cited from earlier work.
[11] abbreviates: DSPE-PEG(2000)-methoxy:drug molar ratio 2:1.

Chain of megalin (mouse) (A2ARV4 26-4660): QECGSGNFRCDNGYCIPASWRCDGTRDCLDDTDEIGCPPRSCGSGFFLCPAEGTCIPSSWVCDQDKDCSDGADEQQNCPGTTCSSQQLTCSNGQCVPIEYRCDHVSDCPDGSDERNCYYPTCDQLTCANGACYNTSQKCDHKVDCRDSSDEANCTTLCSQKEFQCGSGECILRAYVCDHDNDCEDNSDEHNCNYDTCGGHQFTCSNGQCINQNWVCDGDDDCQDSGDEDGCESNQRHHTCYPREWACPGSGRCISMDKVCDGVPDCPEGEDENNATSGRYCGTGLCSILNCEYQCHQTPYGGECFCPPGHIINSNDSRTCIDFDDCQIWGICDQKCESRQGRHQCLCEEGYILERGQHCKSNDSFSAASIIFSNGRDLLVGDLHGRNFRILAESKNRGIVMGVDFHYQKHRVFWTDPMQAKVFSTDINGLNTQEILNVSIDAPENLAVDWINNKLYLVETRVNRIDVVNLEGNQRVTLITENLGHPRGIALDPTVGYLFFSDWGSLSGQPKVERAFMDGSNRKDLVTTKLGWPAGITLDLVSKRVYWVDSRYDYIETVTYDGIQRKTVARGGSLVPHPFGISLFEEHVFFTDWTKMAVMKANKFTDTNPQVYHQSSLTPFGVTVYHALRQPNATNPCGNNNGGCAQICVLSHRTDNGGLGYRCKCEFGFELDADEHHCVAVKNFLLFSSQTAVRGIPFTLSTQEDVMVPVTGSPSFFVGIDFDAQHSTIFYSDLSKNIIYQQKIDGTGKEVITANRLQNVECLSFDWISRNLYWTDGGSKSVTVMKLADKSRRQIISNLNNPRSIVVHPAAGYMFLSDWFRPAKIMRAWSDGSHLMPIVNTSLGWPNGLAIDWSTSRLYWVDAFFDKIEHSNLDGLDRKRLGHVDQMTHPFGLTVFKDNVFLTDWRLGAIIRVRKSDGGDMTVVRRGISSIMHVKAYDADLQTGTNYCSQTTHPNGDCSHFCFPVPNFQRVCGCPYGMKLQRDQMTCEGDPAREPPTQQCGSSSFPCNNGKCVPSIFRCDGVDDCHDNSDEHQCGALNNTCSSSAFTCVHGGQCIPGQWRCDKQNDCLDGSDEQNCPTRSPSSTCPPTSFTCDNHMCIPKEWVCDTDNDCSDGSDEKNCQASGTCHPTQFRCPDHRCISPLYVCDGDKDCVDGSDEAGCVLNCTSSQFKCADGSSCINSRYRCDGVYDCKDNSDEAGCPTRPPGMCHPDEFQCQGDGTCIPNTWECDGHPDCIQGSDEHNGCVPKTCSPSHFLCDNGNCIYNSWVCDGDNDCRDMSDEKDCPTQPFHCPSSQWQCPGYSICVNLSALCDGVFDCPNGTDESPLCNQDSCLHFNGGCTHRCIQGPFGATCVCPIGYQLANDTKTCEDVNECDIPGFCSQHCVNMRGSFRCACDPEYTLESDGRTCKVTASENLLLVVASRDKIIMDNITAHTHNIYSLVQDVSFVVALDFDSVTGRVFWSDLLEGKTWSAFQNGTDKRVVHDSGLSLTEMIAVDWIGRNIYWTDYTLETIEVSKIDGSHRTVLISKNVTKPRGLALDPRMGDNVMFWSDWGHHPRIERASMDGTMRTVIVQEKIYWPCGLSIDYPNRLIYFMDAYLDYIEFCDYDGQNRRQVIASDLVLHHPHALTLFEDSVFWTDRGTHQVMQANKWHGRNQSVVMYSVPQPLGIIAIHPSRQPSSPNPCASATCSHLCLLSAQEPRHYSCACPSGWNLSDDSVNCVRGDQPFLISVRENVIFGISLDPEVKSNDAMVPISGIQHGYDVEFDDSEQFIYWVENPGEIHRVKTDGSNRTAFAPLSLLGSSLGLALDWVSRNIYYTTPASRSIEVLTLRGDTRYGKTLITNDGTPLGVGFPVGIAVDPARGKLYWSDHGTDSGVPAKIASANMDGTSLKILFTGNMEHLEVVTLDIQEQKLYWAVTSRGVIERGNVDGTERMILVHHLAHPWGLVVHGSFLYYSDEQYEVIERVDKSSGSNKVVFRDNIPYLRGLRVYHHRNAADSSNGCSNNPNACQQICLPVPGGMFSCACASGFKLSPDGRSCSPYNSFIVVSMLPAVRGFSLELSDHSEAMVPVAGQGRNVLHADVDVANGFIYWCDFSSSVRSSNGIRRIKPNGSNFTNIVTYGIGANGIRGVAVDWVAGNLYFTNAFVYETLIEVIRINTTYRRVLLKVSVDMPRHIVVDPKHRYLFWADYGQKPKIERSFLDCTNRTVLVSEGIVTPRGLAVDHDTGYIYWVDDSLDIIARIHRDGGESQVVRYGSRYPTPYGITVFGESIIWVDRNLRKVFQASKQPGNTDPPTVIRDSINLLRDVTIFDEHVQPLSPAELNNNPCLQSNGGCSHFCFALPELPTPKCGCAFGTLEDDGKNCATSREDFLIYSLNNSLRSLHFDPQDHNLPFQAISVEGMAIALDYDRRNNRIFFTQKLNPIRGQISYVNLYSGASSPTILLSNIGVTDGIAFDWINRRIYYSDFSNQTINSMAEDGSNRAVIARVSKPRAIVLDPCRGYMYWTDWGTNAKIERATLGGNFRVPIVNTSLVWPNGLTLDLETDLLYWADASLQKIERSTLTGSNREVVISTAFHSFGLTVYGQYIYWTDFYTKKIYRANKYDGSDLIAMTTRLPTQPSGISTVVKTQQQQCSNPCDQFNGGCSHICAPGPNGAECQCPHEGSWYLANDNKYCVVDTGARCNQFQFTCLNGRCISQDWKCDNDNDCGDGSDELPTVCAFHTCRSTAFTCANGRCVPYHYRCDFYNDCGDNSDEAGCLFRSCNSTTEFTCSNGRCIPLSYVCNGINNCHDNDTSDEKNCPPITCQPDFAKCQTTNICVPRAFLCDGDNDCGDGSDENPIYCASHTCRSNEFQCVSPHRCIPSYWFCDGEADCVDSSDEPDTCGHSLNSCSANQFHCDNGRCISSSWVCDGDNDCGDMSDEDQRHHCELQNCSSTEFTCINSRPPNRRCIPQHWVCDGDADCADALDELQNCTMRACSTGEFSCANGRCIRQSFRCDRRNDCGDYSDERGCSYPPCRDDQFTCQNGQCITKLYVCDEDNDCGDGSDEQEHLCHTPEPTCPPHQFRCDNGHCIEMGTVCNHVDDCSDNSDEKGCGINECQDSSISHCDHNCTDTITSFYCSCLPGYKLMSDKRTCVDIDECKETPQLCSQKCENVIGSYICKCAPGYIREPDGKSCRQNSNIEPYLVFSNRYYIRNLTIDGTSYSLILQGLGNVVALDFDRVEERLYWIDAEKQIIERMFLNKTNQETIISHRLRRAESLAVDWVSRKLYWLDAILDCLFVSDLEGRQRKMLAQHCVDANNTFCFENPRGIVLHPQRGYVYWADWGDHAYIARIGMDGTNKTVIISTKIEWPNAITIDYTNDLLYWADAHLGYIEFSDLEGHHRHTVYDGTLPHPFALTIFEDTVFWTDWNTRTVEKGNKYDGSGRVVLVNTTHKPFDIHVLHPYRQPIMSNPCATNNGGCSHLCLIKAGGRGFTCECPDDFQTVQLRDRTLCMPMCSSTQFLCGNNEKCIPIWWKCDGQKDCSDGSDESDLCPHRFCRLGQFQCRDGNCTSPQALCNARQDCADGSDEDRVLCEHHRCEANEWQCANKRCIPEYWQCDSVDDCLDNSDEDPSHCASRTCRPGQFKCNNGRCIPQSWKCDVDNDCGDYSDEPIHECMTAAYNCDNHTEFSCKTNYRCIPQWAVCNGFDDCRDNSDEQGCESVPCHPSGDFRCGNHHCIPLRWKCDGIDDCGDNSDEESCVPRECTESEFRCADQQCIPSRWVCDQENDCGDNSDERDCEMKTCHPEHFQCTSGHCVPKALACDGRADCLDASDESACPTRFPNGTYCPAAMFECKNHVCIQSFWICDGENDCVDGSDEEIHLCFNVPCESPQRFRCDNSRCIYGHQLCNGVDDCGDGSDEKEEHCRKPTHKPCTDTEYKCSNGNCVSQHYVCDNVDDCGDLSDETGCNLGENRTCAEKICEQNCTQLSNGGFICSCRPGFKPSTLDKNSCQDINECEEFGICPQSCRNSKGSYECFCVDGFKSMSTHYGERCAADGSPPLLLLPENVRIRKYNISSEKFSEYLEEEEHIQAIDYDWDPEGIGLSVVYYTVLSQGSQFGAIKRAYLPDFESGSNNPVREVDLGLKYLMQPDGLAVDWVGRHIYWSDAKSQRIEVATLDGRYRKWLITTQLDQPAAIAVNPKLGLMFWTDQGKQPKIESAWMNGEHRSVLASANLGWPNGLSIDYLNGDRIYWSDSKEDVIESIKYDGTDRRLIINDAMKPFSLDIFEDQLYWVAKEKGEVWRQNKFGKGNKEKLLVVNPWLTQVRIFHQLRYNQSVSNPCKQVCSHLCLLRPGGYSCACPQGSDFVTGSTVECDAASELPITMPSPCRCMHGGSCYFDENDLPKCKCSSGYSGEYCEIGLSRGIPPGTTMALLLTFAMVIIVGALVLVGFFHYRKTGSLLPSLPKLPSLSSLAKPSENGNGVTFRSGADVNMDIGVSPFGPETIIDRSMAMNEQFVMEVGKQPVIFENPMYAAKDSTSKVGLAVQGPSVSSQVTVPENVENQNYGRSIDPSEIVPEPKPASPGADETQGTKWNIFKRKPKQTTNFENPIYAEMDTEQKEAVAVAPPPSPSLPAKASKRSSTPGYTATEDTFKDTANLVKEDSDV

Compound “45% PEG2000-(EEKKK)3E micelle (peptide (EEKKK)3E with added N-terminal cysteine, conjugated to DSPE-PEG(2000)-maleimide)” came in with a Pearson's R value (colocalization) with megalin (mouse) of 0.53.

In the data set with megalin (mouse), “45% PEG2000-(KKEEE)3K micelle (kidney-targeting peptide (KKEEE)3K with added N-terminal cysteine, conjugated to DSPE-PEG(2000)-maleimide)” came in with a Pearson's R value (colocalization) of 0.48.

Take `CO[C@H]1C[C@@H]2CC[C@@H](C)[C@@](O)(O2)C(=O)C(=O)N2CCCC[C@H]2C(=O)O[C@H]([C@H](C)C[C@@H]2CC[C@@H](OCCO)[C@H](OC)C2)CC(=O)[C@H](C)/C=C(\C)[C@@H](O)[C@@H](OC)C(=O)[C@H](C)C[C@H](C)/C=C/C=C/C=C/1C` [Everolimus]: in data set [1] (setting [11]), the “Encapsulation efficiency (%)” value worked out at 87.1 ± 2.0%, the “Loading capacity (wt/wt %)” value is listed as 13.0 ± 0.3 wt/wt % and the “Moles drug per mole micelle” value was determined as 0.1 ± 0.01. Moreover, the “Size (nm)” value in [1] (drug-loaded micelles, lipid:drug 2:1) amounted to 21.0 ± 1.3 nm. For the same compound, the solubility (commonly the concentration that dissolves in the medium under given conditions) in the data set “Solubility in MQ” was less than 100 µg/mL.

Compound `CO[C@H]1C[C@@H]2CC[C@@H](C)[C@@](O)(O2)C(=O)C(=O)N2CCCC[C@H]2C(=O)O[C@H]([C@H](C)C[C@@H]2CC[C@@H](O)[C@H](OC)C2)CC(=O)[C@H](C)/C=C(\C)[C@@H](O)[C@@H](OC)C(=O)[C@H](C)C[C@H](C)/C=C/C=C/C=C/1C` [Rapamycin] yielded a solubility in “Solubility in MQ” of 5 to 20 µg/mL (≈ 5.47 to 21.9 µM).

Consider `CCN(CC)c1ccc2c(-c3ccccc3C(=O)O)c3ccc(=[N+](CC)CC)cc-3oc2c1.[Cl-]` [free R, Rhodamine B], for which, in [2], the intestinal localization result was “localized to the duodenum and ileum”. In addition, the absolute bioavailability in [3] is 47.9%. In addition, the “reduction in transport between the colchicine and wortmannin conditions” value in the data set on Caco-2 cells was “No statistically significant reduction”. Moreover, in the data set on Caco-2 cell monolayers, the “changes in TER” value was “No changes in TER”. The “% of total organ fluorescence accumulation in the intestines” value is reported as 45.8±14.0% in data set [4] (3 h), 37.4±15.5% in data set [4] (24 h) and 38.5±15.1% in data set [4] (48 h).

Consider `CN(C)C(=N)N=C(N)N` [free met, metformin], for which, in [5], the “serum components, electrolytes, and kidney health markers” value is “no significant difference between groups”. The same compound yielded an ENaC current in data set [6] of 79.2 μA/cm2. Also, the “phosphorylated AMPK to total AMPK compared to CS-NP” value with AMPK is “significant increase”. Also, in data set [7], the “patients with gastrointestinal (GI) discomfort” value was 25%. The “patients with complete intolerance for the drug” value is reported as “approximately 5%” in [7] (listed as met) and 5% in [7] (listed as metformin).

Consider `Cc1ccccc1C(=O)Nc1ccc(C(=O)N2CCCC(O)c3cc(Cl)ccc32)c(C)c1` (stereo not drawn) [tolvaptan], for which the “clinical trial dropout rate” value in [8] is recorded as 23%.

Regarding “CKDSPKSSKSIRFIPVST (listed as Homo sapiens)”, the Water solubility entry in data set [9] is “Good”. In data set [10], the Targeting location entry is given as “Type A”.

Take “ELRGDRAKL-C: alternative CCD-targeting peptide, SEQ ID NO: 56 (ELRGDRAKLC; listed as Homo sapiens)”: in [9], the Water solubility result is on record as “Good”. Further, in data set [10], the Targeting location result is given as “CCD”.

For the compound “KMGGTNHPE-C: cortical collecting duct (CCD)-targeting peptide, SEQ ID NO: 53 (KMGGTNHPEC; listed as Homo sapiens)”, the Water solubility result in [9] is “Good”. In data set [10], the Targeting location entry was “PCT and CCD”.

In the case of “MGSHIEPGG-C: cortical collecting duct (CCD)-targeting peptide, SEQ ID NO: 52 (MGSHIEPGGC; listed as Homo sapiens)”, the Water solubility entry in data set [9] is given as “Good”. For the same compound, the Targeting location result in data set [10] is “PCT and CCD”.
